Data on one compound can be found in US12559497B2, “Imidazopiperazine inhibitors of transcription activating proteins” (Board of Regents, The University of Texas System, priority 2020, dated 2026).

Data set [1] has as its target T1, GST-CBP (1081-1197) bromodomain (Homo sapiens, UniProt Q92793).
T1 construct: The GST tagged bromodomains of CBP (1081-1197) and BRD4 (49-170) were obtained from BPS Bioscience; purchased BPS Bioscience
As to the kind of experiment: CBP AlphaScreen assay. The following applies: binding to biotin-H4 (1-21) Ac-K5/8/12/16. The protocol: (§1) Specific binding of the CBP or BRD4 bromodomain to the acetylated peptide derived from the H4 histone substrate (tetra acetylated H4 (1-21) Ac—K5/8/12/16) was measured in absence or presence of inhibitors. The GST tagged bromodomains of CBP (1081-1197) and BRD4 (49-170) were obtained from BPS Bioscience and binding to the biotinylated H4 (1-21) Ac—K5/8/12/16 (AnaSpec. 64989) was assessed via AlphaScreen technology (Perkin Elmer).
CBP AlphaScreen assay: 5 nM GST-CBP (1081-1197) and 20 nM biotin-H4 (1-21) Ac—K5/8/12/16 (AnaSpec. 64989) were incubated with varying concentrations of CBP inhibitors in 15 μL of buffer containing 50 mM HEPES 7.5, […], 1 mM TCEP, and 0.003% Tween-20. After 30 minutes incubation at room temperature, 15 μL of detection buffer (BPS Bio. 33006) containing 7 μg/mL of Glutathione AlphaLisa acceptor beads (Perkin Elmer AL109) and 14 μg/mL of Streptavidin donor beads (Perkin Elmer 676002) was then added to the previous mixture. The reaction was incubated for an additional 2 hours at room temperature, and the AlphaScreen signal was quantified using the Envision Multilabel plate reader. As negative control, GST-CBP (1081-1197) was incubated with the non-acetylated biotin-H4 (1-21) peptide (AnaSpec. 62555) and in presence of 0.25% of final DMSO concentration.
(§2) BRD4 AlphaScreen assay: The binding of 2.5 nM of BRD4 (49-170) to 10 nM biotin-H4 (1-21) Ac—K5/8/12/16 (AnaSpec. 64989) was assessed following the same procedure described for the CBP assay. The standard dose response curves were fitted by Genedata Screener software using the variable-slope model: Signal=Signalnegative control+(SignalDMSO control−Signalnegative control)/(1+(IC50/Dose)∧Hill slope).
(§3) Only Signal and Dose in the equation were treated as known values.
In general terms: In Alpha technology, singlet oxygen from a donor bead excites a nearby acceptor bead.

The nature of data set [2]: In vivo pharmacokinetics after a single dose, mouse. Further details: species or system Female CD-1 Mice. On the procedure:
IV (intravenous) doses were formulated in 20% DMSO+60% PEG400+20% water. PO (per os) doses were formulated in 0.5% methylcellulose in water.
Mouse: Female mice (CD1 strain, purchased from Shanghai JH Laboratory Animal Co. LTD) weighing 20-30 g were used for studies. Food and water were available to all animals ad libitum. The test article was dosed via tail vein (IV doses) or oral gavage (PO doses), respectively. Blood samples were collected from all animals at predose and at 0.083, 0.25, 0.5, 1, 2, 4, 8, and 24 h postdose into tubes containing the anticoagulant K2EDTA (3 animals per time point with 3 time points collected per animal). Plasma was separated from the blood by centrifugation at 4° C. and stored at −70° C. until analysis. Test article concentrations in plasma were quantified using a liquid chromatography with tandem mass spectrometry (LC-MS/MS) method.

A short description of data set [3]: Metabolic stability in mouse liver microsomes. To be noted: CD-1, liver microsomes, pH 7.4, 0.5 mg/mL microsomes, NADPH, 45 minutes, 37° C., read-out: Half-life in liver microsomes (t1/2). In kind it is in vitro ADME, CD-1 mouse. The protocol: (§4) Microsomal stability. Microsomal stability assays were conducted on a Beckmann Biomek FXp laboratory automation system. The liver microsomal incubation mixture consisted of liver microsomes (0.5 mg microsomal protein/mL), the Compound (1 μM), MgCl2 (3 mM), and EDTA (1 mM) in potassium phosphate buffer (100 mM, pH 7.4). Midazolam and Ketanserin were used as the assay control substrates. The reaction was initiated with the addition of an NADPH regeneration solution (1.3 mM NADPH) and maintained at 37° C. with shaking. At five time points ranging from 0 to 45 min, aliquots (50 μL) were removed and quenched with acetonitrile (100 μL) containing an internal standard (imipramine). After vortex and centrifugation, samples were analyzed by LC-MS/MS. Calculation of the in vitro half-lives and clearance followed literature guidelines.
A general note: Liver microsomes are a subcellular fraction often used to study metabolism.

A short description of data set [4]: Metabolic stability in monkey liver microsomes. In kind it is in vitro ADME. To be noted: pH 7.4, read-out: Liver microsomal clearance (t1/2). The protocol: as §4
The target in data set [5] is T2, BRD4 (49-170) bromodomain (Homo sapiens, UniProt O60885).
T2 construct: The GST tagged bromodomains of CBP (1081-1197) and BRD4 (49-170) were obtained from BPS Bioscience; purchased BPS Bioscience
As to the kind of experiment: BRD4 AlphaScreen assay. To be noted: binding to biotin-H4 (1-21) Ac-K5/8/12/16. The protocol: as §1, §2, §3

Data set [6] is described as follows: Metabolic stability in human liver microsomes. In kind it is in vitro ADME. To be noted: pH 7.4, 0.5 mg/mL microsomes, NADPH, 45 minutes, 37° C., read-out: Half-life in liver microsomes (t1/2). The protocol:
as §4

[7] abbreviates: plasma, Female CD-1 mice, single dose 0.2 or 0.3 mg/kg IV.

T1 sequence (Q92793 1081-1197): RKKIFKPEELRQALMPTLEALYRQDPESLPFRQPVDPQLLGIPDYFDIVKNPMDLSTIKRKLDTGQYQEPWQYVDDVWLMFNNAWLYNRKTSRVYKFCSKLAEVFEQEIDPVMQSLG

As a reminder, the IC50 is the concentration needed to halve the response being measured. By clearance is commonly meant a measure of how efficiently the substance is removed, as volume per time. For `CC(=O)N1CCn2c(C3CCOCC3)nc(-c3cccc4cc(-c5cnc(C)s5)ncc34)c2C1` [Compound 1, 1-(1-(3-(2-methylthiazol-5-yl)isoquinolin-8-yl)-3-(tetrahydro-2H-pyran-4-yl)-5,6-dihydroimidazo[1,5-α]pyrazin-7 (8H)-yl)ethan-1-one], the IC50 in data set [1] is 0.007 µM; in data set [5], 13.2 µM. In addition, the “mouse in vivo clearances compared to the structural analogs previously disclosed” value in data set [2] (in words) is “dramatic decrease”. Besides, the “mouse in vivo half-lives compared to the structural analogs previously disclosed” value in data set [2] (in words) was “increase”. In addition, the clearance in data set [2] (setting [7]) was 6.2 mL/min/kg. Besides, the half-life in data set [2] (setting [7]) was 2.99 h. For the same compound, in data set [2] (plasma, Female CD-1 mice, single dose 0.2 or 0.3 mg/kg IV, read-out: Vss), the Vd is 1.45 L/kg. Moreover, the half-life at 1 μM in data set [3] was determined as 6.55 h; in data set [4], 1.62 h; in data set [6], 5.17 h.
